Source: patent US12037415B2, “Peptide and pharmaceutical composition for treating an eye disease comprising the same as an active pharmaceutical ingredient” (YuYu Pharma, Inc., priority 2017, dated 2024)
Non-standard residues stand in square brackets, D forms with d. Residues, ends and D or L forms follow the SMILES beside them. No end group written: not given here. ξ: configuration not given here. Pro(trans-4-F) = O=C(O)[C@@H]1C[C@@H](F)CN1; Pro(4,4-Me2) = CC1(C)CN[C@H](C(=O)O)C1; Pro(4-oxo) = O=C1CN[C@H](C(=O)O)C1; Hyp = O=C(O)[C@@H]1C[C@@H](O)CN1; Thr(3ξ) = CC(O)[C@H](N)C(=O)O

How the values were obtained:
[1] = Stability in aqueous solution, amount of related substances under long-term storage conditions; type: physicochemical; conditions: glass vial, 25° C., 75% RH
Procedure: In order to confirm the stability of each test substance in an aqueous solution, […] of each sample was dissolved in 1 ml of water to a concentration of 1 mg/ml, which was then charged to a glass vial, plugged with a rubber cap, sealed with an aluminum cap, and stored under long-term storage conditions (25° C., 75% RH). The stability of the test substance was evaluated by measuring the amount of related substances at the time of one week, two weeks, four weeks, eight weeks, and twelve weeks under the long-term storage conditions.

[2] = system: cornea of rats with dry eye syndrome (ELGE); assay: Corneal permeability of fluorescent dye (corneal damage) in rats with ELGE-induced dry eye syndrome; type: in vivo, rat; conditions: 0.3% solution, day 14 after the administration
Source text: In order to evaluate the eye protection effect on dry eye syndrome by YDE-001 to YDE-028 prepared in Working Example 1, a total of 320 Sprague-Dawley-type male rats (OrientBio, Seungnam, Korea) were adapted for 7 days. Thereafter, dry eye syndrome was induced in 264 test rats through extraorbital lacrimal gland excision (hereinafter, ELGE). 8 test rats without the eye abnormality were subjected to a sham operation as a control group.
The rats were systemically anesthetized by inhaling a mixed gas of 2% to 3% of isoflurane (Hana Pharm. Co., Hwasung, Korea), 70% of N2O, and 28.6% of O2 using a rodent anesthesia machine (Surgivet, Waukesha, Wis., USA) and a ventilator (Model 687, Harvard Apparatus, Cambridge, UK). Thereafter, the extraorbital lacrimal gland located in the subdermal area above the masseter muscle and under the optic nerve was excised through a transverse incision in a size of 10 mm on the anterior part of the left ear tragus. The skin was sutured by a general method. […] After 6 days following the ELGE operation, confirmation was performed through the Schirmer test by measuring the amount of tear secretion whether dry eye syndrome had been induced. Meanwhile, each rat of the control group with the sham operation was checked for the presence and location of the extraorbital lacrimal gland through a skin incision, and the skin was then sutured without the excision thereof (FIG. 134).
In addition, in order to evaluate the eye protection effect on dry eye syndrome by YDE-029 to YDE-043 prepared in Working Example 1, a total of 200 Sprague-Dawley-type male rats (OrientBio, Seungnam, Korea) were adapted for 7 days. Dry eye syndrome was induced in 165 test rats through the ELGE. 8 test rats without the eye abnormality were subjected to the sham operation as a control group. The ELGE was carried out as described above.
(§1) For YDE-001 to YDE-028, YY-102 and the 28 YDE-series were each dissolved in physiological saline at a concentration of 3 mg/ml and administered at a dose of 5 μl/eye at 9:30 am and 3:30 pm daily for 14 days after 7 days from the ELGE operation for a total of 28 times. The DS solution was dissolved in physiological saline at a concentration of 30 mg/ml and administered at a dose of 5 μl/eye twice a day for 14 days after 7 days from the ELGE operation for a total of 28 times. For the sham control and the ELGE control groups, the same stimulation as the administration was applied. In order to prevent excessive eye dryness, the same volume of physiological saline was applied in the same manner in place of the test substances.
as §1, with “Further, For YDE-029” for “For YDE-001”, “Further, For YDE-029 to YDE-043,” for “For YDE-001 to YDE-028,”, “YDE-029 to YDE-043, YY-102 and” for “YDE-001 to YDE-028, YY-102 and”, “and the 15 YDE-series were” for “and the 28 YDE-series were”, “the test substances (FIG. 137).” for “the test substances.”
After YDE-001 to YDE-028 were each administered to the eyes […], the changes in the corneal permeability were checked.
In order to measure the corneal permeability, Zolethyl 50™ (Virbac Lab., Carros, France), an animal anesthetic, was intraperitoneally injected at a dose of 25 mg/kg. Thereafter, saline containing a 1% (v/v) fluorescent solution (fluorescein sodium salt, Tokyo Kasei Kogyo Co., Tokyo, Japan) was applied to the eyes at a dose of 5 μl/eye. The eyes thus treated were closed and fixed with a tape. After 1 hour, the remaining fluorescent solution was removed using a cotton swab (FIG. 142). […]

[3] = study of YDE-001 to YDE-028 (Table 16)
[4] = study of YDE-029 to YDE-043 (Table 17)

| Compound | Amount of related substances (%; after 12 weeks) [1] | Permeability of fluorescent dye (%) [2, 3] | Permeability of fluorescent dye (%) [2, 4] |
| --- | --- | --- | --- |
| CC(C)C[C@H](NC(=O)CNC(=O)[C@H](CCC(=O)O)NC(=O)[C@H](CCC(N)=O)NC(=O)CNC(=O)[C@@H]1C[C@@H](O)CN1)C(=O)N[C@@H](C)C(=O)NCC(=O)N1CCC[C@H]1C(=O)N[C@@H](CCCCN)C(=O)O [YDE-001, HyP-Gly-Gln-Glu-Gly-Leu-Ala-Gly-Pro-Lys] (H-[Hyp]GQEGLAGPK-OH) | 3.92% | 25.49 ± 11.62% | – |
| CC(C)C[C@H](NC(=O)CNC(=O)[C@H](CC(N)=O)NC(=O)[C@H](CCC(N)=O)NC(=O)CNC(=O)[C@@H]1C[C@@H](O)CN1)C(=O)N[C@@H](C)C(=O)NCC(=O)N1CCC[C@H]1C(=O)N[C@@H](CCCCN)C(=O)O [YDE-002, HyP-Gly-Gln-Asn-Gly-Leu-Ala-Gly-Pro-Lys] (H-[Hyp]GQNGLAGPK-OH) | 4.93% | 38.26 ± 11.25% | – |
| CC(C)C[C@H](NC(=O)CNC(=O)[C@H](CCC(N)=O)NC(=O)[C@H](CCC(N)=O)NC(=O)CNC(=O)[C@@H]1C[C@@H](O)CN1)C(=O)N[C@@H](C)C(=O)NCC(=O)N1CCC[C@H]1C(=O)N[C@@H](CCCCN)C(=O)O [YDE-003, HyP-Gly-Gln-Gln-Gly-Leu-Ala-Gly-Pro-Lys] (H-[Hyp]GQQGLAGPK-OH) | 6.86% | 40.45 ± 6.46% | – |
| CC(C)C[C@H](NC(=O)CNC(=O)[C@H](Cc1cnc[nH]1)NC(=O)[C@H](CCC(N)=O)NC(=O)CNC(=O)[C@@H]1C[C@@H](O)CN1)C(=O)N[C@@H](C)C(=O)NCC(=O)N1CCC[C@H]1C(=O)N[C@@H](CCCCN)C(=O)O [YDE-004, HyP-Gly-Gln-His-Gly-Leu-Ala-Gly-Pro-Lys] (H-[Hyp]GQHGLAGPK-OH) | 2.11% | 35.05 ± 11.74% | – |
| CC(C)C[C@H](NC(=O)CNC(=O)[C@H](CCCCN)NC(=O)[C@H](CCC(N)=O)NC(=O)CNC(=O)[C@@H]1C[C@@H](O)CN1)C(=O)N[C@@H](C)C(=O)NCC(=O)N1CCC[C@H]1C(=O)N[C@@H](CCCCN)C(=O)O [YDE-005, HyP-Gly-Gln-Lys-Gly-Leu-Ala-Gly-Pro-Lys] (H-[Hyp]GQKGLAGPK-OH) | 2.97% | 37.98 ± 11.53% | – |
| CC(C)C[C@H](NC(=O)CNC(=O)[C@H](CO)NC(=O)[C@H](CCC(N)=O)NC(=O)CNC(=O)[C@@H]1C[C@@H](O)CN1)C(=O)N[C@@H](C)C(=O)NCC(=O)N1CCC[C@H]1C(=O)N[C@@H](CCCCN)C(=O)O [YDE-006, HyP-Gly-Gln-Ser-Gly-Leu-Ala-Gly-Pro-Lys] (H-[Hyp]GQSGLAGPK-OH) | 3.67% | 33.23 ± 13.26% | – |
| CC(C)C[C@H](NC(=O)CNC(=O)[C@@H](NC(=O)[C@H](CCC(N)=O)NC(=O)CNC(=O)[C@@H]1C[C@@H](O)CN1)C(C)O)C(=O)N[C@@H](C)C(=O)NCC(=O)N1CCC[C@H]1C(=O)N[C@@H](CCCCN)C(=O)O (stereo partly drawn) [YDE-007, HyP-Gly-Gln-Thr-Gly-Leu-Ala-Gly-Pro-Lys] (H-[Hyp]GQ[Thr(3ξ)]GLAGPK-OH) | 3.76% | 32.79 ± 10.77% | – |
| CC(C)C[C@H](NC(=O)CNC(=O)[C@H](C)NC(=O)[C@H](CCC(N)=O)NC(=O)CNC(=O)[C@@H]1C[C@@H](O)CN1)C(=O)N[C@@H](C)C(=O)NCC(=O)N1CCC[C@H]1C(=O)N[C@@H](CCCCN)C(=O)O [YDE-008, HyP-Gly-Gln-Ala-Gly-Leu-Ala-Gly-Pro-Lys] (H-[Hyp]GQAGLAGPK-OH) | 4.42% | 20.32 ± 11.87% | – |
| CC(C)C[C@H](NC(=O)CNC(=O)[C@H](CC(C)C)NC(=O)[C@H](CCC(N)=O)NC(=O)CNC(=O)[C@@H]1C[C@@H](O)CN1)C(=O)N[C@@H](C)C(=O)NCC(=O)N1CCC[C@H]1C(=O)N[C@@H](CCCCN)C(=O)O [YDE-011, HyP-Gly-Gln-Leu-Gly-Leu-Ala-Gly-Pro-Lys] (H-[Hyp]GQLGLAGPK-OH) | 3.83% | 18.11 ± 11.61% | – |
| CC(C)C[C@H](NC(=O)CNC(=O)[C@H](Cc1ccccc1)NC(=O)[C@H](CCC(N)=O)NC(=O)CNC(=O)[C@@H]1C[C@@H](O)CN1)C(=O)N[C@@H](C)C(=O)NCC(=O)N1CCC[C@H]1C(=O)N[C@@H](CCCCN)C(=O)O [YDE-012, HyP-Gly-Gln-Phe-Gly-Leu-Ala-Gly-Pro-Lys] (H-[Hyp]GQFGLAGPK-OH) | 3.57% | 31.01 ± 11.38% | – |
| CC(C)C[C@H](NC(=O)CNC(=O)[C@H](CC(C)C)NC(=O)[C@H](CCC(N)=O)NC(=O)CNC(=O)[C@@H]1C[C@@H](O)CN1)C(=O)N[C@@H](C)C(=O)NCC(=O)N1CCC[C@H]1C(=O)N[C@@H](CCC(=O)O)C(=O)O [YDE-031, HyP-Gly-Gln-Leu-Gly-Leu-Ala-Gly-Pro-Glu] (H-[Hyp]GQLGLAGPE-OH) | – | – | 33.35 ± 11.01% |
| CC(C)C[C@H](NC(=O)CNC(=O)[C@H](CC(C)C)NC(=O)[C@H](CCC(N)=O)NC(=O)CNC(=O)[C@@H]1CC(=O)CN1)C(=O)N[C@@H](C)C(=O)NCC(=O)N1CCC[C@H]1C(=O)N[C@@H](CCCCN)C(=O)O [YDE-035, (4-oxo)Pro-Gly-Gln-Leu-Gly-Leu-Ala-Gly-Pro-Lys] (H-[Pro(4-oxo)]GQLGLAGPK-OH) | – | – | 27.62 ± 6.51% |
| CC(C)C[C@H](NC(=O)CNC(=O)[C@H](CC(C)C)NC(=O)[C@H](CCC(N)=O)NC(=O)CNC(=O)[C@@H]1C[C@@H](F)CN1)C(=O)N[C@@H](C)C(=O)NCC(=O)N1CCC[C@H]1C(=O)N[C@@H](CCCCN)C(=O)O [YDE-039, (4-Fluoro)Pro-Gly-Gln-Leu-Gly-Leu-Ala-Gly-Pro-Lys] (H-[Pro(trans-4-F)]GQLGLAGPK-OH) | – | – | 29.94 ± 11.40% |
| CC(C)C[C@H](NC(=O)CNC(=O)[C@H](CC(C)C)NC(=O)[C@H](CCC(N)=O)NC(=O)CNC(=O)[C@@H]1CC(C)(C)CN1)C(=O)N[C@@H](C)C(=O)NCC(=O)N1CCC[C@H]1C(=O)N[C@@H](CCCCN)C(=O)O [YDE-040, (4-Dimethyl)Pro-Gly-Gln-Leu-Gly-Leu-Ala-Gly-Pro-Lys] (H-[Pro(4,4-Me2)]GQLGLAGPK-OH) | – | – | 18.33 ± 9.41% |
| CC(C)C[C@H](NC(=O)CNC(=O)[C@H](CC(C)C)NC(=O)[C@H](CCC(N)=O)NC(=O)CNC(=O)[C@@H]1C[C@@H](O)CN1)C(=O)O [YDE-042, HyP-Gly-Gln-Leu-Gly-Leu] (H-[Hyp]GQLGL-OH) | – | – | 20.72 ± 11.37% |
| CC(C)C[C@H](NC(=O)[C@H](CCC(N)=O)NC(=O)CNC(=O)[C@@H]1C[C@@H](O)CN1)C(=O)NCC(=O)O [YDE-043, HyP-Gly-Gln-Leu-Gly] (H-[Hyp]GQLG-OH) | – | – | 19.04 ± 7.36% |
| PGQLGLAGPK [YDE-037, Pro-Gly-Gln-Leu-Gly-Leu-Ala-Gly-Pro-Lys] | – | – | 36.30 ± 9.75% |
